# Reference: patent US11098041B2 (Merck Patent GmbH, priority 2014, dated 2021)
# Tests used:
# [1] = target: full-length human BTK (Homo sapiens (Human), UniProt Q06187); experiment: Assay A: microfluidic off-chip mobility shift assay against BTK enzyme; format: biochemical
# Description: Assay A: Microfluidic Off-Chip Mobility Shift Assay Protocol for Potency Assessment Against BTK Enzyme
# The protocol below describes microfluidic, off-chip mobility shift kinase assay to measure inherent potency of compounds against BTK enzyme.
# 5 uL of enzyme buffer and 7.5 uL of ATP/kinKDR peptide substrate mix were added to Matrix (#115304) 384-well, sterile, polypropylene plates (Thermo Fisher Scientific, Hudson, N.H.) with 125 nL of serially diluted compounds prepared in 100% DMSO, and incubated for 90 min. at 27° C. Following the incubation period, reactions were stopped by adding 60 uL stop buffer consisting of 100 mM HEPES, pH 7.5, 0.015% Brij-35 (30%), 0.277% Coating Reagent #3 (Caliper Life Sciences, Mountain View, Calif.), 5% DMSO. Stopped reactions were monitored at −2 PSI, −3000 V/−700 V in a LabChip 3000 plate reader from Caliper Life Sciences, a PerkinElmer Company (Hopkinton, Mass.), and the activity was measured by off-chip mobility shift assay measuring the charge/mass difference between substrate and product resulting from peptide phosphorilation. IC50 and efficacy were determined by plotting log [Inhibitor] vs. % Activity in GeneData Screener (Basel. Switzerland).
# [2] = target: BTK C481S (His-TEV-hsBTK(328-659)(C481S)) (Homo sapiens (Human), UniProt Q06187, C481S); experiment: Assay B: microfluidic off-chip mobility shift assay against BTK C481S enzyme; format: biochemical; settings: BTK C481S mutant
# BTK C481S (His-TEV-hsBTK(328-659)(C481S)), sequence (Q06187 328-659 C481S): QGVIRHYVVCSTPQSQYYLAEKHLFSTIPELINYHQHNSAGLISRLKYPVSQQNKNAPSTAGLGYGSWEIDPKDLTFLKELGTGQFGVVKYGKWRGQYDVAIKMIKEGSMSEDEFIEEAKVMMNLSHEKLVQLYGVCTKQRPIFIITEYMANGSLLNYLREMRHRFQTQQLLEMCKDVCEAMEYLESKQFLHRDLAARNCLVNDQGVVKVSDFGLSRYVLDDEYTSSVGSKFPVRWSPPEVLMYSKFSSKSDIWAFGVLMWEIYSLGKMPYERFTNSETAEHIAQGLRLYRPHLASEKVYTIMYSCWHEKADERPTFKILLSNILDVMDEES
# Description: The mechanics of the assay platform are described by the vendor (PerkinElmer, Hopkinton, Mass.) on their website at the following URL: http://caliperls.com.
# 5 uL of enzyme buffer and 7.5 uL of ATP/KinKDR peptide substrate mix were added to Matrix (#4315) 384-well, sterile, flat-bottom polypropylene plates (Thermo Fisher Scientific, Hudson, N.H.) with 125 nL of serially diluted compounds prepared in 100% DMSO, and incubated for 90 min. at 25° C. Following the incubation period, reactions were terminated by adding 65 uL quench buffer consisting of 100 mM HEPES, pH 7.5, 0.015% Brij-35 (30%), 0.277% Coating Reagent #3 (PerkinElmer, Mountain View, Calif.), 5% DMSO. Terminated reactions were monitored at −2 PSI, −3000 V/−700 Volts in a LabChip 3000 plate reader from Caliper Life Sciences, a PerkinElmer Company (Hopkinton, Mass.), and the activity was quantified by laser-induced fluorescence measuring the charge/mass difference between substrate and product resulting from peptide phosphorylation. IC50 and efficacy were determined by plotting log [Inhibitor] vs. % Activity in GeneData Screener (Basel, Switzerland).
# full-length human BTK, sequence (Q06187 whole entry): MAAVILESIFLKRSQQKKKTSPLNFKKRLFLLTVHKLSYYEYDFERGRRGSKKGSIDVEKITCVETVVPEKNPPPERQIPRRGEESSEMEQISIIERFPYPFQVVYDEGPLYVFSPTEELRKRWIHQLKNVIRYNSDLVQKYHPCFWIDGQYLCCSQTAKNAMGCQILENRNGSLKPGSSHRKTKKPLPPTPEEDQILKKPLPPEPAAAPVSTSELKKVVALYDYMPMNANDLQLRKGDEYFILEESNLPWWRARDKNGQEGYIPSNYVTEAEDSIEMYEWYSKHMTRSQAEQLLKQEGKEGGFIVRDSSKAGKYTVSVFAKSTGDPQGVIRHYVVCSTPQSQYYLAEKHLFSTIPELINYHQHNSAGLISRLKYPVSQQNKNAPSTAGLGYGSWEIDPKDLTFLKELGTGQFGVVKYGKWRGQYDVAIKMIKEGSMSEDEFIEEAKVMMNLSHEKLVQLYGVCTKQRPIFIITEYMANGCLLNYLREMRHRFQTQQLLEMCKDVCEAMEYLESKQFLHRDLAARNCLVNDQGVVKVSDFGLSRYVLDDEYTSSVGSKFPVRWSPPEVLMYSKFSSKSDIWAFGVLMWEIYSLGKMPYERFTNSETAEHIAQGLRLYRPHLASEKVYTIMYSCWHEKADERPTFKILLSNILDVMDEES
IC50 [1] [nM],IC50 [2] [nM],SMILES
1000 to 5000,–,"Cn1cc(-c2nc3c(-c4ccc(CNS(=O)(=O)CCC5CCC5)c(F)c4)ccnc3[nH]2)cn1 [Example 178, 2-cyclobutyl-N-(2-fluoro-4-(2-(1-methyl-1H-pyrazol-4-yl)-3H-imidazo[4,5-b]pyridin-7-yl)benzyl)ethanesulfonamide]"
< 100,–,"COc1ccc(-c2nc3c(-c4ccc(CNC(=O)c5nnc(C(C)(C)C)o5)c(F)c4)ccnc3[nH]2)nc1 [Example 158, 5-tert-butyl-N-([2-fluoro-4-[2-(5-methoxypyridin-2-yl)-3H-imidazo[4,5-b]pyridin-7-yl]phenyl]methyl)-1,3,4-oxadiazole-2-carboxamide]"
< 100,< 100,"CC(C)(C)c1noc(C(=O)NCc2ccc(-c3ccnc4[nH]c(-c5ccncc5)nc34)cc2F)n1 [Example 150, 3-(tert-butyl)-N-(2-fluoro-4-(2-(pyridin-4-yl)-3H-imidazo[4,5-b]pyridin-7-yl)benzyl)-1,2,4-oxadiazole-5-carboxamide]"
1000 to 5000,1000 to 5000,"Cn1cc(-c2nc3c(-c4ccc(C(C)(C)NC(=O)C(N)=O)c(F)c4)ccnc3[nH]2)cn1 [Example 102, N-(1-{2-Fluoro-4-[2-(1-methyl-1H-pyrazol-4-yl)-3H-imidazo[4,5-b]pyridin-7-yl]-phenyl}-1-methyl-ethyl)-oxalamide]"
> 5000,–,"Cn1cc(-c2nc3c(-c4ccc(CNCc5cccc(C(C)(C)C)c5)c(F)c4)ccnc3[nH]2)cn1 [Example 180, N-(3-(tert-butyl)benzyl)-1-(2-fluoro-4-(2-(1-methyl-1H-pyrazol-4-yl)-3H-imidazo[4,5-b]pyridin-7-yl)phenyl)methanamine]"
> 5000,–,"Cn1cc(-c2nc3c(-c4ccc(CNCc5ccc(C(C)(C)C)cc5)c(F)c4)ccnc3[nH]2)cn1 [Example 181, N-(4-(tert-butyl)benzyl)-1-(2-fluoro-4-(2-(1-methyl-1H-pyrazol-4-yl)-3H-imidazo[4,5-b]pyridin-7-yl)phenyl)methanamine]"
> 5000,–,"Cn1cc(-c2nc3c(-c4ccc5c(c4)CCN(C(=O)c4nc(C(C)(C)C)no4)C5)ccnc3[nH]2)cn1 [Example 154, (3-tert-Butyl-[1,2,4]oxadiazol-5-yl)-{6-[2-(1-methyl-1H-pyrazol-4-yl)-3H-imidazo[4,5-b]pyridin-7-yl]-3,4-dihydro-1H-isoquinolin-2-yl}-methanone]"
< 100,–,"Cc1cc(-c2ccnc3[nH]c(-c4ccc(OCC(O)CO)cn4)nc23)ccc1CN1CCOc2cc(C3CC3)cc(F)c2C1=O (centres unmarked) [Example 170, 8-cyclopropyl-4-[(4-[2-[5-(2,3-dihydroxypropoxy)pyridin-2-yl]-3H-imidazo[4,5-b]pyridin-7-yl]-2-methylphenyl)methyl]-6-fluoro-2,3,4,5-tetrahydro-1,4-benzoxazepin-5-one]"
> 5000,–,"Cn1cc(-c2nc3c(-c4ccc(CNS(C)(=O)=O)c(F)c4)ccnc3[nH]2)cn1 [Example 176, N-(2-fluoro-4-(2-(1-methyl-1H-pyrazol-4-yl)-3H-imidazo[4,5-b]pyridin-7-yl)benzyl)methanesulfonamide]"
< 100,–,"CC(C)(C)c1noc(C(=O)NCc2ccc(-c3ccnc4[nH]c(-c5ccc(N6CCCCC6)cn5)nc34)cc2F)n1 [Example 157, 3-tert-Butyl-N-[(2-fluoro-4-[2-[5-(piperidin-1-yl)pyridin-2-yl]-3H-imidazo[4,5-b]pyridin-7-yl]phenyl)methyl]-1,2,4-oxadiazole-5-carboxamide]"
< 100,–,"CN(C)c1ccc(-c2nc3c(-c4ccc(CNC(=O)c5nnc(C(C)(C)C)o5)c(F)c4)ccnc3[nH]2)nc1 [Example 172, 5-tert-butyl-N-[(4-[2-[5-(dimethylamino)pyridin-2-yl]-3H-imidazo[4,5-b]pyridin-7-yl]-2-fluorophenyl)methyl]-1,3,4-oxadiazole-2-carboxamide]"
1000 to 5000,–,"Cn1cc(-c2nc3c(-c4cccc(CNC(=O)c5noc(C(C)(C)C)n5)c4)ccnc3[nH]2)cn1 [Example 87, 5-tert-Butyl-N-([3-[2-(1-methyl-1H-pyrazol-4-yl)-3H-imidazo[4,5-b]pyridin-7-yl]phenyl]methyl)-1,2,4-oxadiazole-3-carboxamide]"
< 100,–,"CN1CCC(c2ccc(-c3nc4c(-c5ccc(CNC(=O)c6noc(C(C)(C)C)n6)c(F)c5)ccnc4[nH]3)nc2)CC1 [Example 169, 5-tert-butyl-N-[(2-fluoro-4-[2-[5-(1-methylpiperidin-4-yl)pyridin-2-yl]-3H-imidazo[4,5-b]pyridin-7-yl]phenyl)methyl]-1,2,4-oxadiazole-3-carboxamide]"
< 100,–,"Cn1cc(-c2nc3c(-c4ccc(CN5CCOc6cc(C7CC7)cc(F)c6C5=O)nc4)ccnc3[nH]2)cn1 [Example 171, 8-cyclopropyl-6-fluoro-4-([5-[2-(1-methyl-1H-pyrazol-4-yl)-3H-imidazo[4,5-b]pyridin-7-yl]pyridin-2-yl]methyl)-2,3,4,5-tetrahydro-1,4-benzoxazepin-5-one]"
< 100,–,"CC(C)(C)OC(=O)N1CC=C(c2nc3c(-c4ccc(CNC(=O)c5noc(C(C)(C)C)n5)c(F)c4)ccnc3[nH]2)CC1 [Example 137, tert-butyl 4-(7-(4-((5-(tert-butyl)-1,2,4-oxadiazole-3-carboxamido)methyl)-3-fluorophenyl)-3H-imidazo[4,5-b]pyridin-2-yl)-5,6-dihydropyridine-1(2H)-carboxylate]"
> 5000,–,"Cn1cc(-c2nc3c(-c4ccc(CNCc5ccc(F)c(F)c5)c(F)c4)ccnc3[nH]2)cn1 [Example 174, N-(3,4-difluorobenzyl)-1-(2-fluoro-4-(2-(1-methyl-1H-pyrazol-4-yl)-3H-imidazo[4,5-b]pyridin-7-yl)phenyl)methanamine]"
> 5000,–,"Cn1cc(-c2nc3c(-c4ccc(CNS(=O)(=O)CC5CCCS(=O)(=O)C5)c(F)c4)ccnc3[nH]2)cn1 (centres unmarked) [Example 179, 1-(1,1-dioxidotetrahydro-2H-thiopyran-3-yl)-N-(2-fluoro-4-(2-(1-methyl-1H-pyrazol-4-yl)-3H-imidazo[4,5-b]pyridin-7-yl)benzyl)methanesulfonamide]"
< 100,–,"Cn1cc(-c2nc3c(-c4ccc(C5(NC(=O)c6nnc(C(C)(C)C)o6)CC5)cc4)ccnc3[nH]2)cn1 [Example 97, 5-tert-Butyl-[1,3,4]oxadiazole-2-carboxylic acid (1-{4-[2-(1-methyl-1H-pyrazol-4-yl)-3H-imidazo[4,5-b]pyridin-7-yl]-phenyl}-cyclopropyl)-amide]"
> 5000,–,"Cc1ccc(S(=O)(=O)NCc2ccc(-c3ccnc4[nH]c(-c5cnn(C)c5)nc34)cc2F)cc1 [Example 175, N-(2-fluoro-4-(2-(1-methyl-1H-pyrazol-4-yl)-3H-imidazo[4,5-b]pyridin-7-yl)benzyl)-4-methylbenzenesulfonamide]"
1000 to 5000,–,"NCc1ccc(-c2ccnc3[nH]c(-c4cnn(C5CCC5)c4)nc23)cc1F [Example 188, 4-[2-(1-Cyclobutyl-1H-pyrazol-4-yl)-3H-imidazo[4,5-b]pyridin-7-yl]-2-fluoro-benzylamine]"
100 to 1000,–,"Cc1ccc(-n2ccn(-c3cccc(-c4ccnc5[nH]c(-c6ccc(C(=O)N7CCOCC7)cc6)nc45)c3CO)c2=O)cc1 [Example 96, 1-[2-(Hydroxymethyl)-3-(2-[4-[(morpholin-4-yl)carbonyl]phenyl]-3H-imidazo[4,5-b]pyridin-7-yl)phenyl]-3-(4-methylphenyl)-2,3-dihydro-1H-imidazol-2-one]"
1000 to 5000,–,"Cn1cc(-c2nc3c(-c4ccc(CNS(=O)(=O)CC5(CC#N)CC5)c(F)c4)ccnc3[nH]2)cn1 [Example 177, 1-(1-(cyanomethyl)cyclopropyl)-N-(2-fluoro-4-(2-(1-methyl-1H-pyrazol-4-yl)-3H-imidazo[4,5-b]pyridin-7-yl)benzyl)methanesulfonamide]"
< 100,–,"CC(C)(C)c1nc(C(=O)NCc2ccc(-c3ccnc4[nH]c(-c5ccc(N6CCC(F)CC6)cn5)nc34)cc2F)no1 [Example 167, 5-tert-butyl-N-[(2-fluoro-4-[2-[5-(4-fluoropiperidin-1-yl)pyridin-2-yl]-3H-imidazo[4,5-b]pyridin-7-yl]phenyl)methyl]-1,2,4-oxadiazole-3-carboxamide]"
> 5000,–,"Cn1cc(-c2nc3c(-c4ccc(CNCc5cccnc5)c(F)c4)ccnc3[nH]2)cn1 [Example 173, N-(2-fluoro-4-(2-(1-methyl-1H-pyrazol-4-yl)-3H-imidazo[4,5-b]pyridin-7-yl)benzyl)-1-(pyridin-3-yl)methanamine]"
